Assay results published in US9517267B2, “Photodynamic diagnostic agent and photobleaching inhibitor” (SBI Pharmaceuticals Co., Ltd., priority 2012, dated 2016).
“Also recorded” adds a separate entry of the source.

Tests used:
[1] = Photobleaching inhibitory effect for porphyrins by each alkyl gallate in solution (Example 4); type: physicochemical; conditions: 50 mM alkyl gallate, 1 μM PpIX; for t/2 of PpIX fluorescence intensity: excitation 402 nm, 0.4 mA, pseudo-first-order
Description: The photobleaching inhibitory effect for porphyrins by gallic acids was measured with the following procedure. Methyl gallate (MeG, from Wako, Cat. No. 134-09812), butyl gallate (BuG, from Wako, Cat. No. 322-67472), n-propyl gallate (PrG, from Wako, Cat. No. 162-06832), and octyl gallate (OcG, from Wako, Cat. No. 322-56482) were employed as gallic acids. The gallic acids employed here are all compounds having a linear alkyl.
(§1) (1) In order to prepare 50 mM solutions of each alkyl gallate, 0.3 mmol of each alkyl gallate was placed in a 15 mL tube, and 6 mL of 50% glycerol PBS solution (a mixture of glycerol and PBS at a proportion of 1:1, hereinafter may be notated as “Gly+PBS” or “Gly+PBS solution”) or DMSO was added and dissolved.
(3) After dispensing 990 μL of alkyl gallate into a 2 mL vial, 10 μL of 100 μM PpIX was added (final concentration of PpIX at 1 μM).
(4) Measurement of the fluorescence spectrum was performed for each alkyl gallate+PpIX solution prepared in (3) with a simplified fluorescence measurement device. LED was employed as the light source, the wavelength of the excitation light employed was 402 nm, the output current was set at 0.4 mA, and the measurement interval was every 10 seconds until 180 seconds for measurement.
For each of the plots above in FIG. 14 and FIG. 15 when a Gly+PBS solution and a DMSO solution was employed as the solvent for gallic acid, the relative fluorescence intensity was calculated by setting the fluorescence intensity immediately post irradiation (0 seconds later) as 1, and the transition of fluorescence intensity of PpIX was plotted with the calculated relative intensity as the vertical axis as shown in FIG. 16 and FIG. 17, respectively. This transition of relative fluorescence intensity was treated as a pseudo-first-order reaction to determine the half-life, and shown in Table 2 and Table 3, respectively.

[2] = Dissolution of alkyl gallates at 50 mM in Gly+PBS or DMSO; type: physicochemical; conditions: for solubility in Gly+PBS solution: 0.3 mmol in 6 mL (50 mM) 50% glycerol PBS
Description: as §1

[3] = Absorption spectrum 350 nm-750 nm of alkyl gallate solutions; type: physicochemical; conditions: 50 mM alkyl gallate solution
Description: (2) Measurement of the absorption spectrum at 350 nm-750 nm was performed with 1000 μL of each alkyl gallate solution prepared in (1).
Since the fluorescent substance protoporphyrin IX (PpIX) has a sharp absorbance at around 400 nm, and a light at around 400 nm is employed as the excitation light, it was deemed possible that excitation of PpIX could be inhibited when employing butyl gallate.

PpIX in MKN45 cells [4] = experiment: Photobleaching inhibitory effect for PpIX produced from ALA in cells with gallic acids or other reductants (Example 1); type: cell-based; conditions: excitation 400 nm, fluorescence 635 nm; for photobleaching inhibitory effect for PpIX: 1 mM ALA 24 h, reductant in 50% glycerol PBS (NPG 2%, PPD 0.5%, DABCO 5%, Prolong Gold as sold), 0-180 s
Description: (§2) MKN45 cells were seeded in a 35 mm dish at 0.5×10^6 cells, and the culture medium on the 35 mm dish was 2 mL. Ten μL of 0.2 M ALA hydrochloride (5-aminolevulinic acid hydrochloride) solution was added to the 2 mL of culture medium in the 35 mm dish to achieve the final concentration of ALA in the culture medium at 1 mM. This 35 mm dish was cultured in a 5% CO2 incubator at 37° C. for 24 hours. The cells were then washed with 1 ml of PBS, 1 mL of each of the following reductant solutions (dissolved in 50% glycerol PBS solution) were added on ice, the cells were immediately scraped off with a cell scraper, and the cells were suspended by pipetting. The fluorescence intensity at 635 nm of each of these cell suspensions under the excitation light at 400 nm was measured. The fluorescence intensity was measured from 0 seconds post irradiation of excitation light for every 10 seconds until 180 seconds post irradiation. Not limited to Example 1, the measurement of fluorescence intensity was performed with irradiation of the excitation light even after the 0 seconds post irradiation of excitation light.
The following were employed at the following final concentrations as each reductant:
Paraphenylenediamine (hereinafter abbreviated as “PPD”): 0.5%
n-propyl gallate (hereinafter abbreviated as “NPG”): 2%
1-4-diazabicyclo[2.2.2]-octane (hereinafter abbreviated as “DABCO”): 5%
Prolong Gold™: approximately 1% as the active ingredient sodium azide
Since Prolong Gold (an anti-fade agent from Invitrogen) was sold as a solution containing approximately 1% of sodium azide, it was added directly as the commercially available solution without employing 50% glycerol/PBS to carry out the investigation.

PpIX in MKN45 cells [5] = experiment: PpIX fluorescence half-life in ALA-loaded cells with 1% NPG at varied excitation light intensity (Example 3); type: cell-based
Description: as §2
In a method similar to Example 1, 1 mL of 1% n-propyl gallic acid (NPG) solution was added, and the intensity of the excitation light was altered to 0.1 mA, 0.2 mA, 0.3 mA, and 0.4 mA to measure the fluorescence intensity.

PpIX in MKN45 cells [6] = experiment: Photobleaching inhibitory effect for PpIX produced from ALA in cells with other reductants (Example 2); type: cell-based; conditions: 1 mM ALA 24 h, ascorbic acid 500 μM, tocopherol 500 μM, lutein 10 μM in PBS, excitation 400 nm, fluorescence 635 nm, 0-180 s
Description: Photobleaching suppression effect for PpIX was measured for other reductants. The following were employed as the reductants. Each reductant solution was prepared by the following method and each of the prepared solutions was used as sample solvents for photobleaching measuring.
Solution supplemented with 5 μL of ascorbic acid (solvent: milli Q, concentration of supplemented solution: 100 mM) was added to 1 mL of PBS to prepare an ascorbic acid solution having a final concentration of 500 μM.
Solution supplemented with 5 μL of tocopherol (solvent: DMSO, concentration of supplemented solution: 100 mM) was added to 1 mL of PBS to prepare a tocopherol solution having a final concentration of 500 μM.
Solution supplemented with 5 μL of lutein (solvent: DMSO, concentration of supplemented solution: 2 mM) was added to 1 mL of PBS to prepare a lutein solution having a final concentration of 10 μM.
MKN45 cells were seeded in a 35 mm dish at 0.5×10^6 cells, and the culture medium on the 35 mm dish was 2 mL. Ten μL of 0.2 M ALA hydrochloride (5-aminolevulinic acid hydrochloride) solution was added to the 2 mL of culture medium in the 35 min dish to achieve the final concentration of ALA in the culture medium at 1 mM. This 35 mm dish was cultured in a 5% CO2 incubator at 37° C. for 24 hours. The cells were then washed with 1 ml of PBS, and then 1 mL of each of the reductant solutions prepared as above were added, the cells were immediately scraped off with a cell scraper, and the cells were suspended by pipetting. The fluorescence intensity at 635 nm of each of these cell suspensions under the excitation light at 400 nm was measured. The fluorescence intensity was measured from 0 seconds post irradiation of excitation light for every 10 seconds until 180 seconds post irradiation. The measurement of fluorescence intensity was performed with irradiation of the excitation light even after the 0 seconds post irradiation of excitation light.

[7] = Gly + PBS solution, fluorescence 627 nm

Molecule	fluorescence intensity of PpIX after 30 seconds and 60 seconds relative to 0 seconds ([1]; DMSO solution)	t/2 of PpIX fluorescence intensity ([1]; DMSO, fluorescence 632 nm) [s]	t/2 of PpIX fluorescence intensity [1, 7] [s]	fluorescence intensity of PpIX after 30 seconds and 60 seconds relative to 0 seconds ([1]; Gly+PBS solution)	photobleaching inhibitory effect for PpIX (PpIX in MKN45 cells [4])	effect of inhibiting photobleaching of PpIX (PpIX in MKN45 cells [6])	other results
CCCCOC(=O)c1cc(O)c(O)c(O)c1 [BuG, butyl gallate]	only modestly reduced	533.2	385.1	only modestly reduced	–	–	solubility in Gly+PBS solution [2]: able to dissolve; solubility in DMSO ([2]; 0.3 mmol in 6 mL (50 mM) DMSO): able to dissolve; absorbance at around 400 nm [3]: found to have absorbance at around 400 nm
C1CN2CCN1CC2 [DABCO, 1-4-diazabicyclo[2.2.2]-octane]	–	–	–	–	insufficient; also recorded: no or almost no effect	–	–
COC(=O)c1cc(O)c(O)c(O)c1 [MeG, Methyl gallate]	only modestly reduced	239.0	346.6	only modestly reduced	–	–	–
CCCOC(=O)c1cc(O)c(O)c(O)c1 [NPG, n-propyl gallate]	only modestly reduced	231.0	239.0	only modestly reduced	superior photobleaching inhibitory effect was observed	–	duration of fluorescence in fluorescence microscope images (PpIX in MKN45 cells [5]; 1% NPG vs vehicle, 0, 1, 2, 3 minutes post irradiation (FIG. 4)): fluorescence was maintained for a longer duration; prolongation of half-life versus vehicle (PpIX in MKN45 cells [5]; excitation light 0.4 mA, NPG 1%): three folds; fluorescence intensity after 180 seconds post irradiation, relative to control at 0 seconds (PpIX in MKN45 cells [4]; 1 mM ALA, NPG 2%): about half
CCCCCCCCOC(=O)c1cc(O)c(O)c(O)c1 [OcG, octyl gallate]	only modestly reduced	239.0	–	–	–	–	solubility in Gly+PBS solution [2]: could not be dissolved
Nc1ccc(N)cc1 [PPD, Paraphenylenediamine]	–	–	–	–	a state of high fluorescence intensity as with NPG could not be maintained; also recorded: no or almost no effect	–	fluorescence intensity at 0 seconds post irradiation of excitation light (PpIX in MKN45 cells [4]; 1 mM ALA, PPD 0.5%): markedly reduced
O=C1O[C@H]([C@@H](O)CO)C(O)=C1O [ascorbic acid]	–	–	–	–	–	do not have the effect of inhibiting photobleaching; also recorded: no or almost no effect	–
CC1=C[C@H](O)CC(C)(C)[C@H]1/C=C/C(C)=C/C=C/C(C)=C/C=C/C=C(C)/C=C/C=C(C)/C=C/C1=C(C)C[C@@H](O)CC1(C)C [lutein]	–	–	–	–	–	do not have the effect of inhibiting photobleaching	–
tocopherol	–	–	–	–	–	do not have the effect of inhibiting photobleaching; also recorded: no or almost no effect	–
